Reference: US20100173013A1, “TREATMENT OF NEOPLASTIC DISORDERS USING COMBINATION THERAPIES” (priority 2009, published 2010)
Values joined by “and” are separate entries in the source; they are usually repeats but may differ in a detail not shown here. Equal values may be shown once. Where a name gives a salt, the structure may show the parent alone. Read-outs that look alike come from different tables or passages of the source.

Legend:
[1] = system: SUM-190PT inflammatory breast carcinoma cells; experiment: cells; settings: for IC50: read-out: IC50 (single agent)
[2] = system: MDA-MB-468 breast cancer cells; experiment: Alamar Blue cell inhibition assay, MDA-MB-468; format: cell-based; settings: 5 day assay, read-out: IC50 (single agent)
[3] = system: A375 melanoma cells; experiment: Alamar Blue cell inhibition assay, A375; format: cell-based; settings: drug added 24 hours before Compound K, read-out: IC50 (single agent)
[4] = system: SUM-149PT inflammatory breast carcinoma cells; experiment: Alamar Blue cell inhibition assay, SUM-149PT; format: cell-based; settings: for IC50: read-out: IC50 (single agent)
[5] = system: BT-474 breast carcinoma cells; experiment: Alamar Blue cell inhibition assay, BT-474; format: cell-based; settings: read-out: IC50 (single agent)
[6] = system: phosphorylation of AKT at S129, T308, S473, p21 at T145, cleavage of PARP; experiment: Western hybridization analysis in BT-474 (AKT, p21 phosphorylation, PARP cleavage); format: cell-based; settings: 5 uM Compound K, 1 uM AKTi VIII, 5:1 combination, 8 hour assay
[7] = system: Hs 578T breast cancer cells; experiment: Alamar Blue cell inhibition assay, Hs 578T; format: cell-based; settings: 4 day assay, read-out: IC50 (single agent)
[8] = system: erlotinib-resistant ZR-75-1 breast carcinoma cells; experiment: Alamar Blue cell inhibition assay, ZR-75-1; format: cell-based; settings: 4 day assay, read-out: IC50 (single agent)
[9] = system: T47D breast carcinoma cells; experiment: Alamar Blue cell inhibition assay, T47D; format: cell-based; settings: read-out: IC50 (single agent)
[10] = system: MIA PaCa-2 pancreatic cancer cells; experiment: Alamar Blue cell inhibition assay, MIA PaCa-2
[11] = system: phosphorylation of Akt at Ser129 and Ser473, PRAS40 at Thr246; settings: MDA-MB-453; 10 uM Compound K, 100 uM Erlotinib, 2 uM Lapatinib; 2, 4 and 8 hour
Description: Whole proteomes were isolated from treated cells and analyzed by Western blot for changes in phosphorylation status of Akt at Ser129 and Ser473 or downstream mediator of Akt activity, PRAS40 at Thr246.

[12] = system: erlotinib-resistant MDA-MB-453 breast carcinoma cells; settings: read-out: IC50 (single agent), 4 day assay
[13] = system: erlotinib-resistant MDA-MB-453 breast carcinoma cells; experiment: cells; settings: Homo sapiens, MDA-MB-453, 96 h, read-out: IC50 (single agent)
[14] = Homo sapiens, MDA-MB-468, 120 h, Compound K added first, drug the next day
[15] = Homo sapiens, A-375, A375, 5 day assay
[16] = Homo sapiens, 72 h, BT-474, 3 day assay
[17] = Homo sapiens, 96 h, BT-474, 4 day assay
[18] = Compound K added first, drug the next day
[19] = Homo sapiens, MDA-MB-468, 120 h, drug added first, Compound K the next day
[20] = Homo sapiens, 96 h, T47D, 4 day assay
[21] = Homo sapiens, MIA PaCa-2, read-out: IC50 (single agent)

SMILES: O=c1[nH]cc(F)c(=O)[nH]1 [5-Fluorouracil]
- degree of inhibitory effect found with agent combination ([1]; Compound K 0 μM, 5-Fluorouracil 10 μM, 5-Fluorouracil added 24 h before K, 5 day assay, positive=synergy, negative=antagonism): 0.0% and −0.0%
- IC50 ([1]; SUM190PT): 12.2 µM
- IC50 [2, 14]: 10.6 µM
- IC50 [3, 15]: 3 µM
- IC50 ([4]; Homo sapiens, SUM149PT): 1.7 µM

SMILES: O=c1[nH]c2ccccc2n1C1CCN(Cc2ccc(-c3nc4cc5[nH]cnc5cc4nc3-c3ccccc3)cc2)CC1 [AKTi VIII, 1,3-Dihydro-1-(1-((4-(6-phenyl-1H-imidazo[4,5-g]quinoxalin-7-yl)phenyl)methyl)-4-piperidinyl)-2H-benzimidazol-2-one]
- IC50 [5, 16]: 0.55 µM
- IC50 [5, 17]: 0.5 µM
- cleavage of PARP (i.e. induction of apoptosis) [6]: very minor effect
- phosphorylation of AKT at S129 [6]: no effect
- phosphorylation of AKT at T308 and S473 [6]: Dramatically reduced
- phosphorylation of p21 at T145 [6]: Dramatically decreased

SMILES: Cn1c(=O)n(-c2ccc(C(C)(C)C#N)cc2)c2c3cc(-c4cnc5ccccc5c4)ccc3ncc21 [BEZ235]
- IC50 [5, 16]: 0.01 µM

SMILES: N.N.[Cl][Pt][Cl] [Cisplatin]
- IC50 [2, 18]: 0.43 µM
- IC50 ([4]; SUM-149PT, drug added 24 hours before Compound K, 5 day assay): 0.462 µM

SMILES: CO[C@H]1/C=C\C=C(/C)C(=O)NC2=CC(=O)C(NCCN(C)C)=C(C[C@@H](C)C[C@H](OC)[C@H](O)[C@@H](C)/C=C(\C)[C@@H]1OC(N)=O)C2=O [Compound 17-DMAG, 17-Dimethylamino-ethylamino-17-demethoxygeldanamycin]
- IC50 [7]: 0.00637 µM

SMILES: O=C(O)c1ccc2c(c1)nc(Nc1cccc(Cl)c1)c1ccncc12 [Compound K]
- IC50 ([1]; SUM-190PT, drug added 24 hours before Compound K, 5 day assay): 0.852 µM
- IC50 [2, 18]: 4.6 µM and 4.5 µM and 4.3 µM
- IC50 ([2]; drug added first, Compound K the next day): 4.4 µM and 4.3 µM and 4.5 µM
- IC50 ([3]; A375, 4 day assay): 5 µM and 4.8 µM and 5.1 µM
- IC50 [8]: 4.1 µM
- IC50 ([9]; T47D, 4 day assay): 5.9 µM and 5.87 µM
- IC50 ([9]; T-47D, 3 day assay): 3.35 µM
- IC50 [7]: 17.6 µM and 16.7 µM
- IC50 ([10]; read-out: IC50 (single agent), MIA PaCa-2, added simultaneously, 4 day assay): 1700 nM
- IC50 ([10]; read-out: IC50 (single agent), MIA PaCa-2, drug added 24 hours before Compound K, 4 day assay): 1500 nM and 2000 nM
- IC50 ([10]; read-out: IC50 (single agent), MIA PaCa-2, drug added 24 hours before Compound K, 5 day assay): 4100 nM
- IC50 [5]: 2.7 µM and 2.9 µM and 2.68 µM
- phosphorylation of Akt at Ser129 [11]: significant reduction
- phosphorylation of Akt at Ser473 [11]: affected, but to a lesser degree
- phosphorylation of PRAS40 at Thr246 [11]: significantly less pronounced
- cleavage of PARP (i.e. induction of apoptosis) [6]: very minor effect
- phosphorylation of AKT at S129 [6]: Dramatically reduced
- phosphorylation of AKT at T308 and S473 [6]: moderate effect
- phosphorylation of p21 at T145 [6]: Dramatically decreased
- IC50 [12]: 6.15 µM

SMILES: COc1cccc2c1C(=O)c1c(O)c3c(c(O)c1C2=O)C[C@@](O)(C(=O)CO)C[C@@H]3O[C@H]1C[C@H](N)[C@H](O)[C@H](C)O1 [Doxorubicin]
- IC50 [2, 14]: 0.016 µM
- IC50 [2, 19]: 0.017 µM

SMILES: C#Cc1cccc(Nc2ncnc3cc(OCCOC)c(OCCOC)cc23)c1 [Erlotinib]
- IC50 [13]: > 100 µM
- IC50 ([8]; Homo sapiens, 96 h): > 200 µM
- IC50 [9, 20]: 47 µM
- degree of inhibitory effect found with agent combination ([4]; Compound K 0 μM, Erlotinib 10 μM, Erlotinib added 24 h before K, 5 day assay, positive=synergy, negative=antagonism): 0.0%
- IC50 ([4]; Homo sapiens, SUM149PT): 2.2 µM
- IC50 [5, 17]: 6.6 µM
- phosphorylation of Akt at Ser129 [11]: no effect
- phosphorylation of Akt at Ser473 [11]: below the detectable levels
- phosphorylation of PRAS40 at Thr246 [11]: pronounced decrease

SMILES: Nc1nc(F)nc2c1ncn2[C@@H]1O[C@H](CO)[C@@H](O)[C@@H]1O [Fludarabine]
- IC50 [3, 15]: 0.0029 µM

SMILES: Nc1ccn([C@@H]2O[C@H](CO)[C@@H](O)C2(F)F)c(=O)n1 [Gemcitabine]
- IC50 [2, 14]: 0.008 µM
- IC50 [2, 19]: 0.0088 µM
- IC50 [10, 21]: 184 nM

SMILES: O=c1cc(N2CCOCC2)oc2c(-c3ccccc3)cccc12 [LY294002, 2-(4-morpholinyl)-8-phenyl-4H-1-benzopyran-4-one]
- IC50 [5, 16]: 2.26 µM

SMILES: CS(=O)(=O)CCNCc1ccc(-c2ccc3ncnc(Nc4ccc(OCc5cccc(F)c5)c(Cl)c4)c3c2)o1 [Lapatinib]
- IC50 [9, 20]: 5.68 µM
- phosphorylation of Akt at Ser129 [11]: no effect
- phosphorylation of Akt at Ser473 [11]: below the detectable levels
- phosphorylation of PRAS40 at Thr246 [11]: pronounced decrease

SMILES: Oc1cccc(-c2nc(N3CCOCC3)c3oc4ncccc4c3n2)c1 [PI-103, 3-[4-(4-morpholinylpyrido[3′,2′:4,5]furo[3,2-d]pyrimidin-2-yl]phenol hydrochloride]
- IC50 ([9]; Homo sapiens, T47D, 72 h): 5.37 µM
- IC50 [5, 16]: 0.41 µM

SMILES: Cc1[nH]c2ccccc2c1CCNCc1ccc(/C=C/C(=O)NO)cc1 [Panobinostat]
- IC50 ([7]; Homo sapiens, 96 h): 0.00276 µM

SMILES: CO[C@H]1C[C@@H]2CC[C@@H](C)[C@@](O)(O2)C(=O)C(=O)N2CCCC[C@H]2C(=O)O[C@H]([C@H](C)C[C@@H]2CC[C@@H](O)[C@H](OC)C2)CC(=O)[C@H](C)/C=C(\C)[C@@H](O)[C@@H](OC)C(=O)[C@H](C)C[C@H](C)/C=C/C=C/C=C/1C [Rapamycin]
- IC50 ([10]; Homo sapiens, MIA PaCa-2, 96 h, read-out: IC50 (single agent)): 18100 nM
- IC50 ([4]; Homo sapiens, SUM149PT): 9.7 µM

SMILES: CNC(=O)c1cc(Oc2ccc(NC(=O)Nc3ccc(Cl)c(C(F)(F)F)c3)cc2)ccn1 [Sorafenib]
- IC50 [9, 20]: 3.58 µM

SMILES: CCN(CC)CCNC(=O)c1c(C)[nH]c(/C=C2\C(=O)Nc3ccc(F)cc32)c1C [Sunitinib]
- IC50 ([3]; Homo sapiens, A-375, A375, 4 day assay): 0.145 µM
- IC50 [9, 20]: 6.2 µM
- IC50 [10, 21]: 420 nM

SMILES: CC[C@]1(O)C[C@@H]2CN(CCc3c([nH]c4ccccc34)[C@@](C(=O)OC)(c3cc4c(cc3OC)N(C)[C@H]3[C@@](O)(C(=O)OC)[C@H](OC(C)=O)[C@]5(CC)C=CCN6CC[C@]43[C@@H]65)C2)C1 [Vinblastine]
- IC50 [3, 15]: 0.0012 µM
- IC50 [10, 21]: 0.014 nM

SMILES: COC[C@H]1OC(=O)c2coc3c2[C@@]1(C)C1=C(C3=O)[C@@H]2CCC(=O)[C@@]2(C)C[C@H]1OC(C)=O [Wortmannin]
- IC50 [5, 16]: 25.9 µM
